Molecular target: T1, S. aureus TrmD (Staphylococcus aureus, UniProt Q2FZ43)
T1 construct: made in house; host or cells: E. coli BL21
T1 sequence (Q2FZ43 1-245): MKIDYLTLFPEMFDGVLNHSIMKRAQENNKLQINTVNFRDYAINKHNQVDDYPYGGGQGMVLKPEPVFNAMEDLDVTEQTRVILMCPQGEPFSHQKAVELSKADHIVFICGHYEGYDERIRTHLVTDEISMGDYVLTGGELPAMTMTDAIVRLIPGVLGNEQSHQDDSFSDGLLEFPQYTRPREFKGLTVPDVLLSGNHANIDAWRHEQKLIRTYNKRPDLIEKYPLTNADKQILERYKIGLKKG
Test: nanoSAR direct-to-biology FP displacement screening of crude triazoles
Assay type: binding
Conditions: crude triazole at 1 μM, assuming full conversion, 500 nM TrmD, 10 nM tracer 4; for inhibition at 1 µM: read-out: % displaced tracer
Outline: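 Crude CuAAC triazoles from alkyne 7 and 320 diverse azides were screened by FP displacement of 10 nM tracer 4 from 500 nM S. aureus TrmD. Buffer was 40 mM Tris HCl, 100 mM NaCl, 10 mM MgCl2, 5% glycerol, pH 7.5.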

| Compound | inhibition at 1 µM | % displaced tracer |
| --- | --- | --- |
| O=c1[nH]cnc2[nH]cc(-c3cn(C[C@@H]4CCCCNC4)nn3)c12 [Compound 03H08, O=C1NC=NC=2NC=C(C=3N=NN(C3)C[C@H]4C[NH2+]CCCC4)C12] | 81% |  |
| NCCCCCCn1cc(-c2c[nH]c3nc[nH]c(=O)c23)nn1 [Compound 03H09, O=C1NC=NC=2NC=C(C=3N=NN(C3)CCCCCC[NH3+])C12] | 50% |  |
| O=c1[nH]cnc2[nH]cc(-c3cn(CCOc4ccc(Cl)cc4)nn3)c12 [Compound 03H10, Clc1ccc(OCCN2N=NC(C=3C=4C(=O)NC=NC4NC3)=C2)cc1] | 85% |  |
| CC(C)(C)n1cc(-c2c[nH]c3nc[nH]c(=O)c23)nn1 [Compound 03H11, O=C1NC=NC=2NC=C(C=3N=NN(C3)C(C)(C)C)C12] | 11% |  |
| C[C@@H](CN)n1cc(-c2c[nH]c3nc[nH]c(=O)c23)nn1 [Compound 03H12, O=C1NC=NC2=C1C(C3=CN([C@H](CN)C)N=N3)=CN2] |  | 20% |
| C[C@@H](O)Cn1cc(-c2c[nH]c3nc[nH]c(=O)c23)nn1 [Compound 04A01, O=C1NC=NC=2NC=C(C=3N=NN(C3)C[C@H](O)C)C12] | 15% |  |
| CC[C@H](c1ccccn1)n1cc(-c2c[nH]c3nc[nH]c(=O)c23)nn1 [Compound 04A02, O=C1NC=NC=2NC=C(C=3N=NN(C3)[C@@H](c4ncccc4)CC)C12] | 15% |  |
| CC(C)(C)Cn1cc(-c2c[nH]c3nc[nH]c(=O)c23)nn1 [Compound 04A03, O=C1NC=NC=2NC=C(C=3N=NN(C3)CC(C)(C)C)C12] | 19% |  |
| O=c1[nH]cnc2[nH]cc(-c3cn(Cc4ccncc4)nn3)c12 [Compound 04A04, O=C1NC=NC=2NC=C(C=3N=NN(C3)Cc4ccncc4)C12] | 11% |  |
| O=c1[nH]cnc2[nH]cc(-c3cn([C@H]4C=CCCCC4)nn3)c12 [Compound 04B01, O=C1NC=NC=2NC=C(C=3N=NN(C3)[C@H]4C=CCCCC4)C12] | 32% |  |
| Cn1nncc1-n1cc(-c2c[nH]c3nc[nH]c(=O)c23)nn1 [Compound 04B02, O=C1NC=NC=2NC=C(C=3N=NN(C=4N(N=NC4)C)C3)C12] | 63% |  |
| O=c1[nH]cnc2[nH]cc(-c3cn(-c4ccc(CO)cc4)nn3)c12 [Compound 04B03, O=C1NC=NC=2NC=C(C=3N=NN(c4ccc(cc4)CO)C3)C12] | 47% |  |
| O=c1[nH]cnc2[nH]cc(-c3cn(CCO)nn3)c12 [Compound 04B04, O=C1NC=NC=2NC=C(C=3N=NN(C3)CCO)C12] | 63% |  |
| Cc1cncc(CCn2cc(-c3c[nH]c4nc[nH]c(=O)c34)nn2)n1 [Compound 04C01, O=C1NC=NC=2NC=C(C=3N=NN(C3)CCc4nc(cnc4)C)C12] | 69% |  |
| O=c1[nH]cnc2[nH]cc(-c3cn(Cc4ccc(Cl)s4)nn3)c12 [Compound 04C02, ClC=1SC(=CC1)CN2N=NC(C=3C=4C(=O)NC=NC4NC3)=C2] | 92% |  |
| CC(C)(C)OC(=O)N1CC[C@H](C2CC2)[C@H]1Cn1cc(-c2c[nH]c3nc[nH]c(=O)c23)nn1 [Compound 04C03, O=C(OC(C)(C)C)N1[C@@H]([C@@H](C2CC2)CC1)CN3N=NC(C=4C=5C(=O)NC=NC5NC4)=C3] | 52% |  |
| O=c1[nH]cnc2[nH]cc(-c3cn([C@@H]4CC[C@H]4F)nn3)c12 [Compound 04C04, F[C@H]1[C@H](N2N=NC(C=3C=4C(=O)NC=NC4NC3)=C2)CC1] | 21% |  |
| O=C1CCC[C@@H](Cn2cc(-c3c[nH]c4nc[nH]c(=O)c34)nn2)N1 [Compound 04D01, O=C1NC=NC=2NC=C(C=3N=NN(C3)C[C@H]4NC(=O)CCC4)C12] | 75% |  |

| Compound | inhibition at 1 µM | % displaced tracer |
| --- | --- | --- |
| C[C@H]1CCCC[C@]1(C)n1cc(-c2c[nH]c3nc[nH]c(=O)c23)nn1 [Compound 04D02, O=C1NC=NC=2NC=C(C=3N=NN(C3)[C@@]4([C@H](CCCC4)C)C)C12] | 27% |  |
| CO[C@H]1COC[C@@H]1n1cc(-c2c[nH]c3nc[nH]c(=O)c23)nn1 [Compound 04D03, O=C1NC=NC=2NC=C(C=3N=NN(C3)[C@@H]4[C@@H](OC)COC4)C12] | 37% |  |
| O=c1[nH]cnc2[nH]cc(-c3cn([C@H]4COC[C@@H]4n4cccn4)nn3)c12 [Compound 04D04, O=C1NC=NC=2NC=C(C=3N=NN(C3)[C@@H]4[C@@H](N5N=CC=C5)COC4)C12] | 51% |  |
| O=C1CC[C@@H](Cn2cc(-c3c[nH]c4nc[nH]c(=O)c34)nn2)O1 [Compound 04E02, O=C1O[C@H](CN2N=NC(C=3C=4C(=O)NC=NC4NC3)=C2)CC1] | 22% |  |
| O=c1[nH]cnc2[nH]cc(-c3cn(Cc4nnc(C5CC5)o4)nn3)c12 [Compound 04E03, O=C1NC=NC=2NC=C(C=3N=NN(C3)CC=4OC(=NN4)C5CC5)C12] | 44% |  |
| COc1ccc(C)cc1[C@@H](C)n1cc(-c2c[nH]c3nc[nH]c(=O)c23)nn1 [Compound 04E04, O=C1NC=NC=2NC=C(C=3N=NN(C3)[C@@H](c4c(OC)ccc(c4)C)C)C12] | 65% |  |
| O=c1[nH]cnc2[nH]cc(-c3cn(Cc4ccno4)nn3)c12 [Compound 04F02, O=C1NC=NC=2NC=C(C=3N=NN(C3)CC=4ON=CC4)C12] | 92% |  |
| O=c1[nH]cnc2[nH]cc(-c3cn(C[C@H](O)c4ccccc4)nn3)c12 [Compound 04F03, O=C1NC=NC=2NC=C(C=3N=NN(C3)C[C@H](O)c4ccccc4)C12] | 57% |  |
| O=c1[nH]cnc2[nH]cc(-c3cn(-c4ccccc4)nn3)c12 [Compound 04F04, O=C1NC=NC=2NC=C(C=3N=NN(c4ccccc4)C3)C12] | 33% |  |
| Cc1c[nH]nc1Cn1cc(-c2c[nH]c3nc[nH]c(=O)c23)nn1 [Compound 04G01, O=C1NC=NC=2NC=C(C=3N=NN(C3)CC4=NNC=C4C)C12] | 87% |  |
| O=c1[nH]cnc2[nH]cc(-c3cn(CCc4ccccn4)nn3)c12 [Compound 04G02, O=C1NC=NC=2NC=C(C=3N=NN(C3)CCc4ncccc4)C12] | 89% |  |
| O=C1NCCN1CCn1cc(-c2c[nH]c3nc[nH]c(=O)c23)nn1 [Compound 04G03, O=C1N(CCN2N=NC(C=3C=4C(=O)NC=NC4NC3)=C2)CCN1] | 15% |  |
| O=c1[nH]cnc2[nH]cc(-c3cn(Cc4nccs4)nn3)c12 [Compound 04G04, S1C(=NC=C1)CN2N=NC(C=3C=4C(=O)NC=NC4NC3)=C2] | 68% |  |
| C[C@H](c1csc2ccccc12)n1cc(-c2c[nH]c3nc[nH]c(=O)c23)nn1 [Compound 04H01, S1c2c(cccc2)C(=C1)[C@H](N3N=NC(C=4C=5C(=O)NC=NC5NC4)=C3)C] | 87% |  |
| NC(=O)C1(n2cc(-c3c[nH]c4nc[nH]c(=O)c34)nn2)CC1 [Compound 04H02, O=C1NC=NC=2NC=C(C=3N=NN(C3)C4(C(=O)N)CC4)C12] | 33% |  |
| O=c1[nH]cnc2[nH]cc(-c3cn(C[C@@H]4CCCCC4(F)F)nn3)c12 [Compound 04H03, F[C@@]1(F)[C@H](CN2N=NC(C=3C=4C(=O)NC=NC4NC3)=C2)CCCC1] | 78% |  |
| O=c1[nH]cnc2[nH]cc(-c3cn(-c4cccc(F)c4)nn3)c12 [Compound 04H04, Fc1cc(N2N=NC(C=3C=4C(=O)NC=NC4NC3)=C2)ccc1] | 16% |  |

From paper PMC12751012, “Nanoscale Direct-to-Biology Optimization and Structural Insights into Selective S. aureus TrmD Inhibitors” (Journal of Medicinal Chemistry, 2025)
